Where two headings read alike, the source gives them in different places.
What was measured:
[1] = tested on: Botrytis cinerea; experiment: Gray mold disease control effect on cucumbers, foliar spray treatment; assay type: in vivo; details: cucumber gray mold, wettable powder foliar spray 1,000 L/ha, four days after inoculation
[2] = tested on: powdery mildew; experiment: Powdery mildew control effect on wheat, foliar spray treatment; assay type: in vivo; details: wettable powder foliar spray 1,000 L/ha, seven days after inoculation
[3] = tested on: wheat leaf rust; experiment: Rust control effect on wheat, foliar spray treatment; assay type: in vivo; details: wettable powder foliar spray 1,000 L/ha, twelve days after inoculation
[4] = tested on: wheat brown rust; experiment: Brown rust control effect on wheat, seed treatment; assay type: in vivo; details: sixteen days after inoculation
Experimental: A pot test was performed to evaluate the brown rust controlling effect on wheat using seed treatment. Compound (1(−)) or Compound (1(+)) was dissolved in DMSO so the treatment amount was 20 g ai/100 kg seeds or 2 g ai/100 kg seeds, and the solution was smeared on wheat seeds in a vial, and eight wheat seeds were seeded in a 80 cm^2 pot. These were irrigated from below in a greenhouse. Fifteen days after seeding, the seedlings were inoculated with wheat brown rust and then kept for two days in a box. These were again irrigated from below in a greenhouse.

[5] = tested on: Phaeosphaeria nodorum; experiment: Antifungal test for pathogens (PDA plate), P.n; assay type: cell-based; details: PDA plate medium
[6] = tested on: Pseudocercoporella herpotrichoides; experiment: Antifungal test for pathogens (PDA plate), P.h; assay type: cell-based; details: PDA plate medium
[7] = tested on: Microdochium nivale; experiment: Antifungal test for pathogens (PDA plate), M.n; assay type: cell-based; details: PDA plate medium
[8] = tested on: Gaeumannomyces graminis; experiment: Antifungal test for pathogens (PDA plate), G.g; assay type: cell-based; details: PDA plate medium
[9] = tested on: Fusarium graminearum; assay type: cell-based; details: PDA plate medium
[10] = tested on: Ustilago nuda; experiment: Antifungal test for pathogens (PDA plate), U.n; assay type: cell-based; details: PDA plate medium
[11] = tested on: Pyricularia oryzae; assay type: cell-based; details: PDA plate medium
[12] = tested on: Rhizoctonia solani; experiment: Antifungal test for pathogens (PDA plate), R.s; assay type: cell-based; details: PDA plate medium
[13] = tested on: Gibberella fujikuroi; experiment: Antifungal test for pathogens (PDA plate), G.f; assay type: cell-based; details: PDA plate medium
[14] = tested on: Rhizopus oryzae; experiment: Antifungal test for pathogens (PDA plate), R.o; assay type: cell-based; details: PDA plate medium
[15] = tested on: Alternaria alternata; experiment: Antifungal test for pathogens (PDA plate), A.m; assay type: cell-based; details: PDA plate medium
[16] = tested on: Sclerotinia sclerotiorum; experiment: Antifungal test for pathogens (PDA plate), S.s; assay type: cell-based; details: PDA plate medium
[17] = tested on: Botrytis cinerea; experiment: Antifungal test for pathogens (PDA plate), B.c; assay type: cell-based; details: PDA plate medium
[18] = tested on: Glomerella cingurata; experiment: Antifungal test for pathogens (PDA plate), G.c; assay type: cell-based; details: PDA plate medium
[19] = tested on: Fusarium oxysporum; experiment: Antifungal test for pathogens (PDA plate), F.c; assay type: cell-based; details: PDA plate medium
[20] = tested on: Pyrenophora graminea; experiment: Antifungal test for pathogens (PDA plate), P.g; assay type: cell-based; details: PDA plate medium
[21] = tested on: Penicillium italicum; experiment: Antifungal test for pathogens (PDA plate), P.i; assay type: cell-based; details: PDA plate medium
[22] = tested on: Cercospora beticola; experiment: Antifungal test for pathogens (PDA plate), C.b; assay type: cell-based; details: PDA plate medium
[23] = tested on: Rhynchosporium secalis; experiment: Antifungal test for pathogens (PDA plate), R.sec; assay type: cell-based; details: PDA plate medium
[24] = tested on: wheat; experiment: Phytotoxicity evaluation of growth inhibition of wheat seeds, seed treatment; assay type: in vivo; details: fifteen days after seeding, untreated 21 cm
Experimental: A pot test was used to perform a phytotoxicity evaluation of growth inhibition using a seed treatment. Compound (1(−)) or Compound (1(+)) was dissolved in DMSO so the treatment amount was 2 or 20 g ai/100 kg seeds, and the solution was smeared on wheat seeds in a vial, and eight wheat seeds were seeded in a 80 cm^2 pot. These were irrigated from below in a greenhouse. Fifteen days after seeding, the length of the wheat was evaluated.

[25] = tested on: Wheat leaf blight (Septoria tritici); experiment: Antifungal test against wheat leaf blight (PDA plate); details: 19 days at 25° C.
Experimental: Wheat leaf blight (Septoria tritici) cultured beforehand in a medium plate was punched out with a 4 mm-diameter cork borer, and inoculated in the plate media containing the agent. After inoculation, they were cultured for 19 days at 25° C., and the growth of the fungus was determined by the diameter of the growth. The growth rate of the fungus in the plate media containing the agent was compared to the growth rate of the fungus in the plate medium not containing the agent, and the filamentous fungi inhibition rate was determined using the following equation. In the equation, R is the filamentous fungi inhibition rate (%), dc is the diameter of the fungal growth in the untreated plate media, and dt is the diameter of the fungal growth in the treated plate media. R=100(dc−dt)/dc

[26] = tested on: wheat leaf blight; experiment: Leaf blotch control effect on wheat, foliar spray treatment; details: wettable powder foliar spray 1,000 L/ha, thirty days after inoculation
Experimental: After blow drying the sprayed leaves, the plants were sprinkled and inoculated with wheat leaf blight. Thirty days after inoculation, the morbidity of the wheat to powdery mildew was evaluated according to the criteria shown in Table 3, and the preventative value was calculated using the following equation. When the average morbidity of the sprayed plot was higher than the average morbidity of the unsprayed plot, the preventative value was 0%. Preventative value (%)=(1−(average morbidity of the sprayed plot/average morbidity of the unsprayed plot))×100.

COC(=O)[C@]1(C)CC[C@H](Cc2ccc(Cl)cc2)[C@@]1(O)Cn1cncn1 (relative stereo) [Compound (1(−)), (1,2-cis, 1,3-cis)-3-(4-chlorobenzyl)-2-hydroxy-1-methyl-2-(1H-1,2,4-triazole-1-ylmethyl)cyclopentanecarboxylic acid methyl ester]
4 (90%-80%): Antifungal Index of Each Strain P.o ([11]; Sample Conc. 1.25 mg/L) | Antifungal Index of Each Strain A.m ([15]; Sample Conc. 2.5 mg/L) | Antifungal Index of Each Strain P.g ([20]; Sample Conc. 0.31 mg/L) | Antifungal Index ([25]; sample conc. 1.25 mg/L)
5 (>90%): Antifungal Index of Each Strain P.n ([5]; Sample Conc. 1.25 mg/L) | Antifungal Index of Each Strain P.n ([5]; Sample Conc. 2.5 mg/L) | Antifungal Index of Each Strain P.n ([5]; Sample Conc. 5 mg/L) | Antifungal Index of Each Strain P.h ([6]; Sample Conc. 1.25 mg/L) | Antifungal Index of Each Strain P.h ([6]; Sample Conc. 2.5 mg/L) | Antifungal Index of Each Strain P.h ([6]; Sample Conc. 5 mg/L) | Antifungal Index of Each Strain M.n ([7]; Sample Conc. 2.5 mg/L) | Antifungal Index of Each Strain M.n ([7]; Sample Conc. 5 mg/L) | Antifungal Index of Each Strain G.g ([8]; Sample Conc. 1.25 mg/L) | Antifungal Index of Each Strain G.g ([8]; Sample Conc. 2.5 mg/L) | Antifungal Index of Each Strain G.g ([8]; Sample Conc. 5 mg/L) | Antifungal Index of Each Strain F.g ([9]; Sample Conc. 1.25 mg/L) | Antifungal Index of Each Strain F.g ([9]; Sample Conc. 2.5 mg/L) | Antifungal Index of Each Strain F.g ([9]; Sample Conc. 5 mg/L) | Antifungal Index of Each Strain U.n ([10]; Sample Conc. 1.25 mg/L) | Antifungal Index of Each Strain U.n ([10]; Sample Conc. 2.5 mg/L) | Antifungal Index of Each Strain U.n ([10]; Sample Conc. 5 mg/L) | Antifungal Index of Each Strain P.o ([11]; Sample Conc. 2.5 mg/L) | Antifungal Index of Each Strain P.o ([11]; Sample Conc. 5 mg/L) | Antifungal Index of Each Strain R.s ([12]; Sample Conc. 1.25 mg/L) | Antifungal Index of Each Strain R.s ([12]; Sample Conc. 2.5 mg/L) | Antifungal Index of Each Strain R.s ([12]; Sample Conc. 5 mg/L) | Antifungal Index of Each Strain G.f ([13]; Sample Conc. 1.25 mg/L) | Antifungal Index of Each Strain G.f ([13]; Sample Conc. 2.5 mg/L) | Antifungal Index of Each Strain G.f ([13]; Sample Conc. 5 mg/L) | Antifungal Index of Each Strain R.o ([14]; Sample Conc. 1.25 mg/L) | Antifungal Index of Each Strain R.o ([14]; Sample Conc. 2.5 mg/L) | Antifungal Index of Each Strain R.o ([14]; Sample Conc. 5 mg/L) | Antifungal Index of Each Strain A.m ([15]; Sample Conc. 5 mg/L) | Antifungal Index of Each Strain S.s ([16]; Sample Conc. 1.25 mg/L) | Antifungal Index of Each Strain S.s ([16]; Sample Conc. 2.5 mg/L) | Antifungal Index of Each Strain S.s ([16]; Sample Conc. 5 mg/L) | Antifungal Index of Each Strain B.c ([17]; Sample Conc. 1.25 mg/L) | Antifungal Index of Each Strain B.c ([17]; Sample Conc. 2.5 mg/L) | Antifungal Index of Each Strain B.c ([17]; Sample Conc. 5 mg/L) | Antifungal Index of Each Strain G.c ([18]; Sample Conc. 1.25 mg/L) | Antifungal Index of Each Strain G.c ([18]; Sample Conc. 2.5 mg/L) | Antifungal Index of Each Strain G.c ([18]; Sample Conc. 5 mg/L) | Antifungal Index of Each Strain F.c ([19]; Sample Conc. 1.25 mg/L) | Antifungal Index of Each Strain F.c ([19]; Sample Conc. 2.5 mg/L) | Antifungal Index of Each Strain F.c ([19]; Sample Conc. 5 mg/L) | Antifungal Index of Each Strain P.g ([20]; Sample Conc. 0.63 mg/L) | Antifungal Index of Each Strain P.i ([21]; Sample Conc. 0.63 mg/L) | Antifungal Index of Each Strain C.b ([22]; Sample Conc. 0.08 mg/L) | Antifungal Index of Each Strain C.b ([22]; Sample Conc. 0.16 mg/L) | Antifungal Index of Each Strain C.b ([22]; Sample Conc. 0.31 mg/L) | Antifungal Index of Each Strain C.b ([22]; Sample Conc. 0.63 mg/L) | Antifungal Index of Each Strain R.sec ([23]; Sample Conc. 0.08 mg/L) | Antifungal Index of Each Strain R.sec ([23]; Sample Conc. 0.16 mg/L) | Antifungal Index of Each Strain R.sec ([23]; Sample Conc. 0.31 mg/L) | Antifungal Index of Each Strain R.sec ([23]; Sample Conc. 0.63 mg/L)
3 (80%-70%): Antifungal Index of Each Strain M.n ([7]; Sample Conc. 1.25 mg/L) | Antifungal Index of Each Strain A.m ([15]; Sample Conc. 1.25 mg/L) | Antifungal Index of Each Strain P.g ([20]; Sample Conc. 0.16 mg/L) | Antifungal Index of Each Strain P.i ([21]; Sample Conc. 0.31 mg/L)
2 (70%-60%): Antifungal Index of Each Strain P.g ([20]; Sample Conc. 0.08 mg/L) | Antifungal Index ([25]; sample conc. 0.63 mg/L)
65%: Preventative Value (%) ([26]; sample conc. 50 mg/L)
6 cm: Average Plant Length (cm) ([24]; wheat seed treatment 20 g ai/100 kg seeds)
100%: Preventative Value (%) ([1]; sample conc. 50.0 mg/L) | Preventative Value (%) ([4]; seed treatment 20 g ai/100 kg seeds)
1 (<60%): Antifungal Index of Each Strain P.i ([21]; Sample Conc. 0.08 mg/L) | Antifungal Index of Each Strain P.i ([21]; Sample Conc. 0.16 mg/L) | Antifungal Index ([25]; sample conc. 0.31 mg/L)
92.9%: Preventative Value (%) ([3]; sample conc. 3.1 mg/L)
83.5%: Preventative Value (%) ([3]; sample conc. 0.8 mg/L)
70%: Preventative Value (%) ([4]; seed treatment 2 g ai/100 kg seeds)
64.7%: Preventative Value (%) ([1]; sample conc. 12.5 mg/L)
98%: Preventative Value (%) ([2]; sample conc. 50.0 mg/L)
11 cm: Average Plant Length (cm) ([24]; wheat seed treatment 2 g ai/100 kg seeds)
96%: Preventative Value (%) ([2]; sample conc. 12.5 mg/L)
37.5%: Preventative Value (%) ([26]; sample conc. 12.5 mg/L)

CC1(C)CCC(Cc2ccc(Cl)cc2)C1(O)Cn1cncn1 (centres unmarked) [Metconazole, reference compound]
4 (90%-80%): Antifungal Index ([25]; sample conc. 1.25 mg/L)
1 (<60%): Antifungal Index ([25]; sample conc. 0.31 mg/L)
2 (70%-60%): Antifungal Index ([25]; sample conc. 0.63 mg/L)
62.5%: Preventative Value (%) ([26]; sample conc. 50 mg/L)
0%: Preventative Value (%) ([26]; sample conc. 12.5 mg/L)
81.1%: Preventative Value (%) ([3]; sample conc. 3.1 mg/L)
34.1%: Preventative Value (%) ([3]; sample conc. 0.8 mg/L)
